# Results published in US6979686B1, “Substituted pyrazoles as p38 kinase inhibitors” (Pharmacia Corporation, priority 2001, dated 2005).
# Biological target: T1, human p38 kinase alpha (Homo sapiens, UniProt Q16539)
# T1 construct: GST (N, cleaved yes); made in house; host or cells: E. coli DH10B
# Assay: p38 kinase in vitro assay, phosphorylation of biotinylated PHAS-I with 32P-ATP
# Format: biochemical
# Details: @ 1.0 uM
# T1 sequence (Q16539 whole entry): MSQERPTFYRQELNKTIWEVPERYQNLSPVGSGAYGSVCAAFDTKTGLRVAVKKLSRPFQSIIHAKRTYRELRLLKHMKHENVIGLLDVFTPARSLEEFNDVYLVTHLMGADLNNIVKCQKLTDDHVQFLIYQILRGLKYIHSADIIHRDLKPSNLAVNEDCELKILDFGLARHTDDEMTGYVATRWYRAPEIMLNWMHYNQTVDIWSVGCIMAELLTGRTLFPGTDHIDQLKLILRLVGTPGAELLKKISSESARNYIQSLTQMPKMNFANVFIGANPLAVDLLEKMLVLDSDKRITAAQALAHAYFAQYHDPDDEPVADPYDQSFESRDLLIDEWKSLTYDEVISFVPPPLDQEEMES
P38 alpha kinase % inhib @ conc. (uM) [% @],P38 alpha kinase % inhib @ conc. [% @],Structure (SMILES)
69.0,–,O=C(NCCc1[nH]nc(-c2ccc(F)cc2)c1-c1ccncc1)c1ccncc1 [Example B-1006]
–,89.0,CC(C)OC(=O)NCCCc1[nH]nc(-c2ccc(F)cc2)c1-c1ccncc1 [Example B-1234]
–,87.0,C=CCNC(=O)NCCCc1[nH]nc(-c2ccc(F)cc2)c1-c1ccncc1 [Example B-1217]
96.0,–,O=S(=O)(Cc1ccccc1)NCCc1[nH]nc(-c2ccc(F)cc2)c1-c1ccncc1 [Example B-1017]
–,87.0,CCCCS(=O)(=O)NCCCc1[nH]nc(-c2ccc(F)cc2)c1-c1ccncc1 [Example B-1199]
65.0,–,O=C(NCCc1[nH]nc(-c2ccc(F)cc2)c1-c1ccncc1)c1ccccc1I [Example B-0982]
–,90.0,NC(=O)NCCCc1[nH]nc(-c2ccc(F)cc2)c1-c1ccncc1 [Example B-1207]
65.0,–,O=C(NCCCc1[nH]nc(-c2ccc(F)cc2)c1-c1ccncc1)c1ccccc1C(F)(F)F [Example B-1173]
75.0,–,CN(C)C(=O)NCCc1[nH]nc(-c2ccc(F)cc2)c1-c1ccncc1 [Example B-1035]
–,90.0,O=C(Cc1cccs1)NCCCc1[nH]nc(-c2ccc(F)cc2)c1-c1ccncc1 [Example B-1228]
72.0,–,O=C(NCCc1[nH]nc(-c2ccc(F)cc2)c1-c1ccncc1)C1CCC1 [Example B-0988]

# Same assay, conditions: @ 1.0 uM; read-out: P38 alpha kinase % inhib @ conc.
row,inhibition at 1 µM [%],Structure (SMILES)
1,68,Cc1ccc(C(=O)NCc2[nH]nc(-c3ccc(F)cc3)c2-c2ccncc2)cc1 [Example B-0021]

# Same assay, conditions: @ 10.0 uM
P38 alpha kinase % inhib @ conc. (uM) [% @],P38 alpha kinase % inhib @ conc. [% @],"P38 alpha kinase IC50, uM or % inhib @ conc. (uM): % inhib [% @]",Structure (SMILES)
56.0,–,–,COc1cc(NC(=O)NCCc2[nH]nc(-c3ccc(F)cc3)c2-c2ccncc2)cc(OC)c1OC [Example B-0979]
–,70.0,–,CCCC(=O)COC(=O)NCc1[nH]nc(-c2ccc(F)cc2)c1-c1ccncc1 [Example B-0177]
–,–,75.0,Cc1c(-c2ccncc2)c(-c2ccc(F)cc2)nn1CC(=O)Nc1ccc(OCCOc2ccccc2)cc1 [Example B-2448]
–,43.0,–,CCOC(=O)CC(C)NC(=O)Cn1nc(-c2ccc(F)cc2)c(-c2ccncc2)c1C (stereo not shown) [Example B-2343]
–,77.0,–,CCCC(CCC)NC(=O)Cn1nc(-c2ccc(F)cc2)c(-c2ccncc2)c1C [Example B-2356]
–,82.0,–,COC(=O)C(NC(=O)Cn1nc(-c2ccc(F)cc2)c(-c2ccncc2)c1C)C(C)C (stereo not shown) [Example B-2365]

# Same assay, conditions: Table 8; 1% DMSO; read-out: p38α Kinase Assay IC50
row,IC50 [nM],Structure (SMILES)
1,770,"O=C(O)CCC(=O)N1CCN(c2n[nH]c(-c3ccc(Cl)cc3)c2-c2ccncc2)CC1 [A-321 (dihydrate), 4-[5-(4-chlorophenyl)-4-(4-pyridinyl)-1H-pyrazol-3-yl]-γ-oxo-1-piperazinebutanoic acid, dihydrate]"

# Same assay, conditions: in vitro P38-alpha kinase inhibition; read-out: P38 alpha kinase IC50
row,IC50 [nM],Structure (SMILES)
1,1990,O=S(=O)(Cc1ccccc1)NC(Cc1ccccc1)c1[nH]nc(-c2ccc(F)cc2)c1-c1ccncc1 (stereo not shown) [Example B-0711]
2,670,COc1ccc(S(=O)(=O)NC(Cc2ccccc2)c2[nH]nc(-c3ccc(F)cc3)c2-c2ccncc2)cc1 (stereo not shown) [Example B-0764]
3,300,O=C(NC(Cc1ccccc1)c1[nH]nc(-c2ccc(F)cc2)c1-c1ccncc1)C1CCC1 (stereo not shown) [Example B-0804]
4,60,CC(NS(=O)(=O)c1c(Cl)cccc1Cl)c1[nH]nc(-c2ccc(F)cc2)c1-c1ccncc1 (stereo not shown) [Example B-0630]
5,120,Cc1noc(C)c1S(=O)(=O)NCCc1[nH]nc(-c2ccc(F)cc2)c1-c1ccncc1 [Example B-1104]
6,370,O=S(=O)(NC(Cc1ccccc1)c1[nH]nc(-c2ccc(F)cc2)c1-c1ccncc1)c1ccccc1 (stereo not shown) [Example B-0753]
7,6250,CC(Oc1ccccc1)C(=O)NC(Cc1ccccc1)c1[nH]nc(-c2ccc(F)cc2)c1-c1ccncc1 (stereo not shown) [Example B-0857]
8,890,Cc1ccccc1C(=O)NC(C)c1[nH]nc(-c2ccc(F)cc2)c1-c1ccncc1 (stereo not shown) [Example B-0669]
9,< 100,CC(NS(=O)(=O)c1ccc(Cl)cc1)c1[nH]nc(-c2ccc(F)cc2)c1-c1ccncc1 (stereo not shown) [Example B-0610]
10,1020,O=C(NC(Cc1ccccc1)c1[nH]nc(-c2ccc(F)cc2)c1-c1ccncc1)C1CCCC1 (stereo not shown) [Example B-0852]
11,600,COc1ccc(OC)c(S(=O)(=O)NC(C)c2[nH]nc(-c3ccc(F)cc3)c2-c2ccncc2)c1 (stereo not shown) [Example B-0634]
12,1560,COc1ccc(CC(=O)NC(Cc2ccccc2)c2[nH]nc(-c3ccc(F)cc3)c2-c2ccncc2)cc1 (stereo not shown) [Example B-0848]
13,3150,CC(NC(=O)c1ccc(Cl)cc1)c1[nH]nc(-c2ccc(F)cc2)c1-c1ccncc1 (stereo not shown) [Example B-0670]
14,58,Cc1cccc(Cl)c1S(=O)(=O)NC(C)c1[nH]nc(-c2ccc(F)cc2)c1-c1ccncc1 (stereo not shown) [Example B-0644]
15,230,CC(C)c1ccc(S(=O)(=O)NCCc2[nH]nc(-c3ccc(F)cc3)c2-c2ccncc2)cc1 [Example B-1074]
16,190,O=S(=O)(NCCc1[nH]nc(-c2ccc(F)cc2)c1-c1ccncc1)c1ccc(-c2ccccn2)s1 [Example B-1111]
17,740,COCC(=O)NC(Cc1ccccc1)c1[nH]nc(-c2ccc(F)cc2)c1-c1ccncc1 (stereo not shown) [Example B-0842]

row,IC50 [nM],Structure (SMILES)
1,80,COc1ccc(S(=O)(=O)NC(Cc2ccccc2)c2[nH]nc(-c3ccc(F)cc3)c2-c2ccncc2)cc1OC (stereo not shown) [Example B-0767]
2,3440,CC(NC(=O)C1CCC1)c1[nH]nc(-c2ccc(F)cc2)c1-c1ccncc1 (stereo not shown) [Example B-0537]
3,3100,O=C(NC(Cc1ccccc1)c1[nH]nc(-c2ccc(F)cc2)c1-c1ccncc1)c1cccc(Br)c1 (stereo not shown) [Example B-0838]
4,540,O=S(=O)(NC(Cc1ccccc1)c1[nH]nc(-c2ccc(F)cc2)c1-c1ccncc1)c1ccc(F)cc1F (stereo not shown) [Example B-0757]
5,380,Cc1cc(C)c(C(=O)NCCc2[nH]nc(-c3ccc(F)cc3)c2-c2ccncc2)c(C)c1 [Example B-1133]
6,490,CC(NS(=O)(=O)c1ccc(Cl)c(Cl)c1)c1[nH]nc(-c2ccc(F)cc2)c1-c1ccncc1 (stereo not shown) [Example B-0642]
7,< 100,C[C@@H](NS(=O)(=O)c1ccc(Cl)cc1)c1[nH]nc(-c2ccc(F)cc2)c1-c1ccncc1 [Example B-0433]
8,1490,O=C(NC(Cc1ccccc1)c1[nH]nc(-c2ccc(F)cc2)c1-c1ccncc1)c1ccc(F)cc1 (stereo not shown) [Example B-0832]
9,< 100,COc1ccc(Cl)cc1S(=O)(=O)NCCc1[nH]nc(-c2ccc(F)cc2)c1-c1ccncc1 [Example B-1106]
10,15400,CC(NC(=O)c1ccc(C(F)(F)F)cc1F)c1[nH]nc(-c2ccc(F)cc2)c1-c1ccncc1 (stereo not shown) [Example B-0685]
11,90,CCOC(=O)NC(C)c1[nH]nc(-c2ccc(F)cc2)c1-c1ccncc1 (stereo not shown) [Example B-0603]
12,85,Cc1c(Cl)cccc1S(=O)(=O)NC(C)c1[nH]nc(-c2ccc(F)cc2)c1-c1ccncc1 (stereo not shown) [Example B-0624]
13,950,Cc1ccc(S(=O)(=O)NC(Cc2ccccc2)c2[nH]nc(-c3ccc(F)cc3)c2-c2ccncc2)cc1 (stereo not shown) [Example B-0766]
14,65,CC(NS(=O)(=O)c1ccccc1Br)c1[nH]nc(-c2ccc(F)cc2)c1-c1ccncc1 (stereo not shown) [Example B-0631]
15,1560,COCC(=O)NC(C)c1[nH]nc(-c2ccc(F)cc2)c1-c1ccncc1 (stereo not shown) [Example B-0543]
16,950,C=CCOC(=O)NC(Cc1ccccc1)c1[nH]nc(-c2ccc(F)cc2)c1-c1ccncc1 (stereo not shown) [Example B-0833]
17,2470,O=C(NCCc1[nH]nc(-c2ccc(F)cc2)c1-c1ccncc1)c1cc(F)cc(C(F)(F)F)c1 [Example B-1141]

# Same assay, conditions: in vitro P38-alpha kinase; read-out: P38 alpha kinase IC50
row,IC50 [nM],Structure (SMILES)
1,410,CC(C)c1ccc(S(=O)(=O)NCCCc2[nH]nc(-c3ccc(F)cc3)c2-c2ccncc2)cc1 [Example B-1251]
2,97,Cn1cnc(S(=O)(=O)NCCCc2[nH]nc(-c3ccc(F)cc3)c2-c2ccncc2)c1 [Example B-1291]
3,430,COc1ccc(Cl)cc1S(=O)(=O)N1CCC(c2[nH]nc(-c3ccc(F)cc3)c2-c2ccncc2)CC1 [Example B-1445]
4,2560,Cc1c(-c2ccncc2)c(-c2ccc(F)cc2)nn1CC(=O)NCCCCCCN(C)C [Example B-2287]
5,1970,Cc1ccc(S(=O)(=O)NCCNC(=O)Cn2nc(-c3ccc(F)cc3)c(-c3ccncc3)c2C)cc1 [Example B-2299]
6,37,O=C(NCCCc1[nH]nc(-c2ccc(F)cc2)c1-c1ccncc1)c1cc(F)ccc1F [Example B-1349]
7,1180,O=S(=O)(c1cccc(F)c1)N1CCC(c2[nH]nc(-c3ccc(F)cc3)c2-c2ccncc2)CC1 [Example B-1464]
8,2110,CCCCNC(=O)Cn1nc(-c2ccc(F)cc2)c(-c2ccncc2)c1C [Example B-2293]
9,40,Cc1c(-c2ccncc2)c(-c2ccc(F)cc2)nn1CC(=O)NC[C@@H]1CCCO1 [Example B-2283]
10,92,CC(C)c1cc(C(C)C)c(C(=O)NCCCc2[nH]nc(-c3ccc(F)cc3)c2-c2ccncc2)c(C(C)C)c1 [Example B-1326]
11,< 100,O=[N+]([O-])c1ccccc1CS(=O)(=O)NCCCc1[nH]nc(-c2ccc(F)cc2)c1-c1ccncc1 [Example B-1247]
12,< 100,O=S(=O)(NCCCc1[nH]nc(-c2ccc(F)cc2)c1-c1ccncc1)c1cccc2cccnc12 [Example B-1248]
13,< 100,O=C(c1ccccc1)N1CCC(c2[nH]nc(-c3ccc(F)cc3)c2-c2ccncc2)CC1 [Example B-1385]
14,810,Cc1c(-c2ccncc2)c(-c2ccc(F)cc2)nn1CC(=O)NCc1ccccn1 [Example B-2281]
15,1410,O=C(c1cc(F)cc(F)c1)N1CCC(c2[nH]nc(-c3ccc(F)cc3)c2-c2ccncc2)CC1 [Example B-1415]
16,250,Cc1c(C)c(S(=O)(=O)NCCCc2[nH]nc(-c3ccc(F)cc3)c2-c2ccncc2)c(C)c2c1OC(C)(C)CC2 [Example B-1287]

row,Structure (SMILES),IC50 [nM]
1,CN(C)S(=O)(=O)NCCCc1[nH]nc(-c2ccc(F)cc2)c1-c1ccncc1 [Example B-1292],10
